# Reference: US7084301B2 (Ranbaxy Laboratories Limited, priority 2003, dated 2006)
# Assays:
# 5-HT1A receptors = molecular target: T1, 5-HT1A receptors (Homo sapiens, UniProt P08908); details: reported, J. Med. Chem. 2000; cited from earlier work
# T1 sequence (P08908 1-422): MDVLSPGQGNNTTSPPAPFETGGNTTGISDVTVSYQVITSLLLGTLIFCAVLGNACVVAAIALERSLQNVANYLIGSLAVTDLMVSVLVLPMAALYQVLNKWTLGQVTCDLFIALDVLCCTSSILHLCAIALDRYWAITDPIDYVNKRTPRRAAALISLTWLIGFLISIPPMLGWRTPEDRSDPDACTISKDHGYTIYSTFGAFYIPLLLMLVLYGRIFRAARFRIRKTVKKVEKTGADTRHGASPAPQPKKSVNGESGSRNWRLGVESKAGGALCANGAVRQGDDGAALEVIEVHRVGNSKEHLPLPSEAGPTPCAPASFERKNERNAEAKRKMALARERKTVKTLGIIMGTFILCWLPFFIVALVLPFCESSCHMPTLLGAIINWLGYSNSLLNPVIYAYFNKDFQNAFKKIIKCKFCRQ
# D-3 receptors = D-3 receptors (Homo sapiens, UniProt P35462); details: reported, J. Med. Chem. 2000; cited from earlier work
# human α1A-adrenoceptors = molecular target: T2, human α1A-adrenoceptors (Homo sapiens, UniProt P35348); experiment: Radioligand-receptor binding assay, human recombinant α1A-adrenoceptor, [3H]prazosin
# T2 sequence (P35348 1-466): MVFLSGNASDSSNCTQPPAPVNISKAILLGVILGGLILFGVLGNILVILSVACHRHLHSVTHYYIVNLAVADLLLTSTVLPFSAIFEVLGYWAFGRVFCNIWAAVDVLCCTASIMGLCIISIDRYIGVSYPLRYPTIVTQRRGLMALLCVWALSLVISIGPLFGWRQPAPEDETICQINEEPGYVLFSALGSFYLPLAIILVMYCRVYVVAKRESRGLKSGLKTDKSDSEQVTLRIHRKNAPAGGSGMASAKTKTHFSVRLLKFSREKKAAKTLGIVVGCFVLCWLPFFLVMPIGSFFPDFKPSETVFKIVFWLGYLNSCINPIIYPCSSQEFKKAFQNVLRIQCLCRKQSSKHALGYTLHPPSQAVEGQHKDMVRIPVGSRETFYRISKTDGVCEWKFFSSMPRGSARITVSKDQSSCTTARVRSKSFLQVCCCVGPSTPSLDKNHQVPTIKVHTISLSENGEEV
# Protocol: Chinese hamster ovary (CHO) cells which had been stably transfected with human α1A, α1B, or α1D-adrenoceptors (Keffel et al., Biochem. Biophys. Res. Commun., 2000, 272, 906–11) were cultured in an atmosphere of 5% CO2/95% air at 37° C. in F-12 HAM medium supplemented with 10% heat-inactivated fetal calf serum, 1 mM glutamine, 100 U/ml penicillin and 0.1 mg/ml streptomycin. Selection pressure was maintained by regular addition of geneticin to the culture medium.
# Competitive radioligand binding to the cloned subtypes of […] was performed using [^3H]prazosin as the radioligand as described by Michel et al, Br. J. Pharmacol., 98, 883–889 (1989) with minor modifications. Experiments were performed in binding buffer consisting of 50 mM Tris, 10 mM MgCl2 and 0.5 mM EDTA at pH 7.5 in a total assay volume of 1000 μl. The protein content typically was 40–60 μg/assay. The mixtures were incubated at 25° C. for 45 minutes. Incubations were terminated by rapid vacuum filtration over GF/C filters followed by two washes of the filters each with 10 ml ice-cold incubation buffer. Non-specific binding was defined as binding in the presence of 10 μM phentolamine.
# The IC50 & Kd were estimated by using the non-linear curve fitting program using G Pad Prism software. The value of inhibition constant Ki was calculated from competitive binding studies by using Cheng & Prusoff equation [Cheng & Prusoff, Biochem. Pharmacol., 22, 3099–3108 (1973)], Ki=IC50/(1+L/Kd), where L is the concentration of [^3H] prazosin used in the particular experiment. Kd of [^3H] prazosin was determined from saturation binding studies. The values were tabulated as mean±SEM of pKi values, where pKi is the −log of Ki value.
# [1] = molecular target: T3, rat α1D-adrenoceptor (aorta) (Rattus norvegicus, UniProt P23944); experiment: In-vitro functional study, agonist-induced contractile response on isolated rat aorta; format: biochemical
# T3 sequence (P23944 1-561): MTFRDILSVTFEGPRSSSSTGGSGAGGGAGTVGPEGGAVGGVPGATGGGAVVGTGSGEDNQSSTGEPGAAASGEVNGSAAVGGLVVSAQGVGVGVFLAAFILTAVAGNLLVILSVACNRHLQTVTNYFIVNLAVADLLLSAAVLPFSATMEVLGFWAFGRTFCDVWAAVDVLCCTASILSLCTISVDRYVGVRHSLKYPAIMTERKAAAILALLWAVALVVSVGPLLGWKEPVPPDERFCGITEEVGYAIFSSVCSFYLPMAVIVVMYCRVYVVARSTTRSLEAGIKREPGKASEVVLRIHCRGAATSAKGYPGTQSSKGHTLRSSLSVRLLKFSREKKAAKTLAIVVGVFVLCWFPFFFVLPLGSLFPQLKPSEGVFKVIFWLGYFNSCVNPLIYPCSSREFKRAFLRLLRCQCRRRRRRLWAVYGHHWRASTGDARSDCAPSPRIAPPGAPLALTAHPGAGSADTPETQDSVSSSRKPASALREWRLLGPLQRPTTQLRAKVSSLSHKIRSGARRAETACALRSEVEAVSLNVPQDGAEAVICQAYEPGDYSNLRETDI
# Protocol: Aorta, prostate and spleen tissues were isolated from urethane anaesthetized (1.5 gm/kg) male wistar rats. Isolated tissues were mounted in organ bath containing Krebs Henseleit buffer of following compostion (mM): NaCl 118; KCl 4.7; CaCl2 2.5; MgSO4.7H2O 1.2; NaHCO3 25; KH2PO4 1.2; glucose 11.5. Buffer was maintained at 37° C. and aerated with a mixture of 95% O2 and 5% CO2. A resting tension of 2 g (aorta) or 1 g (spleen and prostate) was applied to tissues. Contractile response was monitored using a force displacement transducer and recorded on chart recorders. Tissues were allowed to equilibrate for 2 hours. At the end of equilibration period, concentration response curves to norepinephrine (aorta) and phenylepinephrine (spleen and prostate) were obtained in absence and presence of tested compound (at concentrations of […]). Antagonist affinities were calculated and expressed as pKB vales in Table II.
# To compare the differences in pKB at the α1-arenrenoceptor subtypes one-way ANOVA followed by Dunett ‘t’ test was applied. A p<0.05 was considered statistically significant.
# Sequence of D-3 receptors (P35462 whole entry): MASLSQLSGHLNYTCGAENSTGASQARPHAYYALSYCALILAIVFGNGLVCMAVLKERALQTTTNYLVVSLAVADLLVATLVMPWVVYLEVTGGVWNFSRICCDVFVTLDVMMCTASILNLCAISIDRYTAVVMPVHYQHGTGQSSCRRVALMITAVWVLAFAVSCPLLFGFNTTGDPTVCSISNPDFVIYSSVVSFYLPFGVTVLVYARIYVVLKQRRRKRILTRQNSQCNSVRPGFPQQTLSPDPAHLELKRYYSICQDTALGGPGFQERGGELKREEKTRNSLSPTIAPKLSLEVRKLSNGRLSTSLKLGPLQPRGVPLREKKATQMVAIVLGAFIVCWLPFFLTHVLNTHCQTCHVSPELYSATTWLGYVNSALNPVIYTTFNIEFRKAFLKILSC
smiles,measurement,setting,value
"CCOc1ccccc1OCCNC(C)Cc1ccc(OC)c(S(N)(=O)=O)c1 (single isomer, unassigned; (-)) [Tamsulosin, (−) isomer of 5-[2-[2-(2-ethoxyphenoxy)ethylamino]-2-methylethyl]-2-methoxybenzene sulfonamide, reference compound]",affinity for 5-HT1A receptors,5-HT1A receptors,subnanomolar affinity
same,affinity for D-3 receptors,D-3 receptors,subnanomolar affinity
"CCOc1ccccc1OCCN[C@H](C)Cc1ccc(O)c(S(N)(=O)=O)c1 [Formula I, R (−)-5-[2-[[2-(2-ethoxyphenoxy)ethyl]amino]propyl]-2-hydroxybenzenesulfonamide]",fold greater affinity for α1A-adrenoreceptor subtype than the corresponding (S)-isomer,human α1A-adrenoceptors; human recombinant receptors,102 fold
same,Ki,"human α1A-adrenoceptors; human recombinant receptors in CHO cells, mean ± SEM, read-out: pKi α1A (converted)",0.0219 nM
same,melting point,,159.5 °C
same,Kb,[1],0.00589 nM
